According to paper PMC12040169 (PLOS Biology, 2025):

Experiment: in vitro
Settings: human, hela cells, % viability

SMILES	viability at 28.5 h, 10 µM
CN1CCC(N[C@H]2C[C@@H](Cc3cc(CCO)on3)C2(C)C)CC1 [CBK289253]	93.6%
CC(C)(O)c1cc(CC2(NCc3ccc(Cl)cc3)COC2)no1 [CBK289254]	80.1%
CC(C)(O)c1cc(CC2(NCc3ccco3)COC2)no1 [CBK289255]	92.6%
CC1(C)[C@H](Cc2cc(CC3CCCCC3)on2)C[C@@H]1NC(=O)C1CCCC1 [CBK289256]	84.7%
CCCCc1cc(C[C@@H]2C[C@H](NC(=O)N3CCOCC3)C2(C)C)no1 [CBK289257]	87.9%
CC1(C)[C@H](Cc2cc(CC3CCCCC3)on2)C[C@@H]1NC(=O)N1CCOCC1 [CBK289258]	98.6%
O=C1CO[C@H]2CN(Cc3ncc[nH]3)C[C@H]2N1Cc1ccncc1 [CBK289259]	108%
N#Cc1ccc(CN2C[C@@H]3OCC(=O)N[C@@H]3C2)cc1 [CBK289261]	103%
COc1ccc(CN2C(=O)CO[C@H]3CN(C(=O)COc4ccccc4)C[C@H]32)cc1 [CBK289262]	108%
COc1ccc(C(=O)N[C@H]2C[C@@H]3C(=O)N[C@H]4CCN(C(=O)C5CCC5)[C@@H]4C(=O)N3C2)cc1 [CBK289266]	89.3%
COc1ccccc1CC(=O)N1CC[C@@H]2NC(=O)[C@H]3C[C@H](NC(=O)C4CC4)CN3C(=O)[C@H]21 [CBK289267]	103%
O=C(N[C@H]1C[C@@H]2C(=O)N[C@H]3CCN(C(=O)Cc4cccs4)[C@@H]3C(=O)N2C1)C1CCC1 [CBK289269]	117%
O=C(O)CCC(=O)N[C@H]1CCN2C(=O)c3cc(-c4ccc(Cl)cc4)ccc3NC(=O)[C@H]12 [CBK289275]	115%
Cc1ccc(S(=O)(=O)N2C[C@H](O)C[C@H]2C(=O)O)cc1 [CBK289276]	103%
CCCN1C(=O)[C@@H]2[C@@H](CCN2C(=O)C(=O)O)N(Cc2cccs2)C1=O [CBK289277]	93.1%
COc1ccc(CC(=O)N2CC[C@H]3NC(=O)N(c4ccccc4)C(=O)[C@H]32)cc1 [CBK289278]	92.7%
COc1cccc(N2C(=O)N[C@@H]3CCN(S(=O)(=O)c4ccccc4)[C@@H]3C2=O)c1 [CBK289283]	111%
Cc1ccc(N2C(=O)N[C@@H]3CCN(C(=O)c4ccc(C(C)(C)C)cc4)[C@@H]3C2=O)cc1 [CBK289284]	98.8%
Cc1ccc(N2C(=O)N[C@@H]3CCN(S(=O)(=O)c4ccccc4)[C@@H]3C2=O)cc1 [CBK289285]	107%
COC(=O)C(=O)N1CC[C@H]2NC(=O)N(c3ccc(C(C)C)cc3)C(=O)[C@H]21 [CBK289287]	105%
CC(C)c1ccc(N2C(=O)N[C@@H]3CCN(S(=O)(=O)c4ccccc4)[C@@H]3C2=O)cc1 [CBK289289]	114%
COC(=O)C(=O)N1CC[C@H]2NC(=O)N(Cc3ccccc3)C(=O)[C@H]21 [CBK289292]	98.6%
CS(=O)(=O)c1ccc(CN2CCOC[C@H]2c2nc(-c3ccc(F)cc3)c[nH]2)cc1 [CBK289295]	89.4%
COc1ccc(-c2c[nH]c([C@@H]3COCCN3Cc3csnn3)n2)cc1 [CBK289297]	97.5%
COc1ccc(-c2c[nH]c([C@@H]3COCCN3Cc3cccc(C#N)c3)n2)cc1 [CBK289298]	96%
CS(=O)(=O)c1ccc(-c2c[nH]c([C@@H]3COCCN3Cc3ccccc3)n2)cc1 [CBK289300]	83.1%
Cc1ccc(-c2c[nH]c([C@@H]3COCCN3Cc3csnn3)n2)cc1 [CBK289302]	91.4%

SMILES	viability at 28.5 h, 10 µM
FC(F)(F)Oc1ccc(-c2c[nH]c([C@@H]3COCCN3Cc3c[nH]cn3)n2)cc1 [CBK289303]	111%
O=C(O)c1ccc(CN2CCOC[C@H]2c2nc(-c3ccc(F)cc3)c[nH]2)cc1 [CBK289304]	91.2%
Clc1ccc(-c2c[nH]c([C@@H]3COCCN3Cc3csnn3)n2)cc1 [CBK289309]	87.1%
CCNC(=O)N[C@H]1C[C@@H](Cc2cc(CN(C)C)on2)C1(C)C [CBK289310]	105%
CN(C)Cc1cc(C[C@@H]2C[C@H](NC(=O)c3ccnc(Cl)c3)C2(C)C)no1 [CBK289311]	89.6%
FC(F)(F)Oc1ccc(-c2c[nH]c([C@@H]3COCCN3C3CCNCC3)n2)cc1 [CBK289312]	97.8%
OCc1cc(CC2(NCc3cccc4c3OCO4)COC2)no1 [CBK289314]	90.6%
Clc1ccc(-c2c[nH]c([C@@H]3COCCN3Cc3c[nH]cn3)n2)cc1 [CBK289316]	105%
FC(F)(F)c1ccc(-c2c[nH]c([C@@H]3COCCN3Cc3csnn3)n2)cc1 [CBK289318]	92.2%
c1cncc(CN2CCOC[C@H]2c2nc(-c3cccnc3)c[nH]2)c1 [CBK289323]	86.3%
O=C1N[C@@H]2CCN(C(=O)C3CC3)[C@@H]2C(=O)N1c1ccc(F)cc1 [CBK289324]	99.6%
CC(C)(C)C(=O)N1CC[C@H]2NC(=O)N(c3ccc(F)cc3)C(=O)[C@H]21 [CBK289328]	86.4%
O=C(O)CCC(=O)N1CC[C@H]2NC(=O)N(c3ccc(F)cc3)C(=O)[C@H]21 [CBK289329]	103%
O=C(N[C@H]1CCN2C(=O)c3cc(-c4ccc5c(c4)OCO5)ccc3NC(=O)[C@H]12)C1CCCC1 [CBK289333]	103%
O=C(N[C@H]1CCN2C(=O)c3cc(Br)ccc3NC(=O)[C@H]12)c1cccc(F)c1 [CBK289334]	82.3%
O=C(N[C@H]1CCN2C(=O)c3cc(-c4cccs4)ccc3NC(=O)[C@H]12)c1cccs1 [CBK289336]	91.8%
O=C(N[C@H]1CCN2C(=O)c3cc(-c4cccs4)ccc3NC(=O)[C@H]12)c1cnccn1 [CBK289337]	116%
O=C(N[C@H]1CCN2C(=O)c3cc(-c4ccsc4)ccc3NC(=O)[C@H]12)c1cccc(F)c1 [CBK289339]	92.6%
O=C1Nc2cc(Cl)ccc2C(=O)N2CC[C@H](NC(=O)N3CCOCC3)[C@@H]12 [CBK289340]	87.7%
O=C1Nc2cc(Cl)ccc2C(=O)N2CC[C@H](NS(=O)(=O)c3cccs3)[C@@H]12 [CBK289341]	108%
O=C(O)COCC(=O)N[C@H]1CCN2C(=O)c3ccc(Cl)cc3NC(=O)[C@H]12 [CBK289342]	90%
O=C1Nc2ccc(/C=C/c3ccccc3)cc2C(=O)N2CC[C@H](NC(=O)N3CCOCC3)[C@@H]12 [CBK289344]	98.1%
CC(C)NC(=O)N[C@H]1CCN2C(=O)c3cc(-c4ccc(F)cc4F)ccc3NC(=O)[C@H]12 [CBK289346]	86.8%
Cc1cccc(-c2ccc3c(c2)C(=O)N2CC[C@H](NC(=O)c4cnccn4)[C@H]2C(=O)N3)c1C [CBK289348]	87.2%
O=C(N[C@H]1CCN2C(=O)c3cc(-c4ccccc4)ccc3NC(=O)[C@H]12)C1CCCC1 [CBK289349]	91.6%
O=C(N[C@H]1CCN2C(=O)c3cc(-c4ccccc4)ccc3NC(=O)[C@H]12)c1cccs1 [CBK289350]	85.9%
CC(C)(C)CC(=O)N[C@H]1C[C@H]2C(=O)Nc3ccccc3C(=O)N2C1 [CBK289352]	96.2%

SMILES	viability at 28.5 h, 10 µM
COCC(=O)N[C@H]1C[C@H]2C(=O)Nc3ccccc3C(=O)N2C1 [CBK289353]	91.7%
O=C(N[C@H]1C[C@H]2C(=O)Nc3ccccc3C(=O)N2C1)c1ccccc1 [CBK289354]	103%
COc1ccc(C(=O)N[C@H]2C[C@H]3C(=O)Nc4ccccc4C(=O)N3C2)cc1 [CBK289355]	84.7%
CS(=O)(=O)N[C@H]1C[C@H]2C(=O)Nc3ccc(-c4cccs4)cc3C(=O)N2C1 [CBK289359]	95.7%
COCC(=O)N[C@H]1C[C@H]2C(=O)Nc3ccc(-c4ccsc4)cc3C(=O)N2C1 [CBK289360]	96.6%
O=C(N[C@H]1C[C@H]2C(=O)Nc3ccc(-c4ccsc4)cc3C(=O)N2C1)c1ccccc1 [CBK289361]	91%
CC(C)NC(=O)N1CC[C@H](c2nc3ncccc3[nH]2)C1 [CBK289369]	101%
Cc1ccc2oc([C@H]3CCN(S(C)(=O)=O)C3)nc2c1 [CBK289371]	97.2%
O=C(NC1CCCCC1)N1CC[C@H](c2nc3ccccc3o2)C1 [CBK289372]	88.4%
CS(=O)(=O)N1CC[C@H](c2nc3ccccc3s2)C1 [CBK289374]	77.8%
Cc1ccc2[nH]c([C@H]3CCN(C(=O)NC(C)C)C3)nc2c1 [CBK289375]	90.8%
O=C(c1cncnc1)N1CC[C@H](c2nc3cc(F)ccc3[nH]2)C1 [CBK289376]	96.8%
COc1ccc2[nH]c([C@H]3CCN(S(C)(=O)=O)C3)nc2c1 [CBK289377]	111%
N#Cc1ccc2nc([C@H]3CCN(C(=O)c4ccccc4)C3)[nH]c2c1 [CBK289379]	92.4%
N#Cc1ccc2nc([C@H]3CCN(C(=O)C4CCCCC4)C3)[nH]c2c1 [CBK289380]	90%
CCS(=O)(=O)c1ccc2oc([C@H]3CCN(S(=O)(=O)c4ccccc4)C3)nc2c1 [CBK289382]	88.2%
CN1CC[C@H](c2nc3ncccc3[nH]2)C1 [CBK289384]	76.8%
CS(=O)(=O)c1ccc(CN2CC[C@H](c3nc4ncccc4[nH]3)C2)cc1 [CBK289385]	101%
Cc1ccc2oc([C@H]3CCN(Cc4ccc(C(=O)O)cc4)C3)nc2c1 [CBK289386]	100%
c1ccc2sc([C@H]3CCNC3)nc2c1 [CBK289389]	91.2%
Cc1nnc([C@H]2CCN(Cc3ccc(F)cc3)C2)o1 [CBK289391]	88.4%
Cc1nnc([C@H]2CCN(Cc3ccc4c(c3)OCO4)C2)o1 [CBK289392]	111%
N#Cc1cccc(CN2CC[C@H](c3nnc(-c4ccco4)o3)C2)c1 [CBK289394]	92.5%
CC(=O)N1CCC(N2CC[C@H](c3nnc(-c4ccco4)o3)C2)CC1 [CBK289395]	86.9%
c1ccc(CN2CC[C@H](c3nnc(-c4cccnc4)o3)C2)cc1 [CBK289397]	85.6%
